# Like-named read-outs stand apart in the source and are kept apart here. No end group written: not given here.
# Experiments:
# A549 epithelial cells = assay: Human Operon arrays (PRHU04-S1) of A549 cells treated with peptide alone (Tables 31-37, 53); conditions: peptide 50 μg/ml, 4 h, A549 cells; for X58467 cytochrome P450, expression Ratio ID#:ctrl: Table 36
# HBE cells = assay: WST-1 assay (cell viability); type: cell-based, human
# Protocol: (§1) The potential toxicity of the peptides was measured in two ways. First, the Cytotoxicity Detection Kit (Roche) (Lactate dehydrogenase-LDH) Assay was used. It is a colorimetric assay for the quantification of cell death and cell lysis, based on the measurement of LDH activity released from the cytosol of damaged cells into the supernatant. LDH is a stable cytoplasmic enzyme present in all cells and it is released into the cell culture supernatant upon damage of the plasma membrane. An increase in the amount of dead or plasma membrane-damaged cells results in an increase of the LDH enzyme activity in the culture supernatant as measured with an ELISA plate reader, OD490 nm (the amount of color formed in the assay is proportional to the number of lysed cells). In this assay, human bronchial epithelial cells (I6HBEo14, HBE) cells were incubated with 100 μg of peptide for 24 hours, the supernatant removed and tested for LDH. The other assay used to measure toxicity of the cationic peptides was the WST-1 assay (Roche). This assay is a colorimetric assay for the quantification of cell proliferation and cell viability, based on the cleavage of the tetrazolium salt WST-1 by mitochondrial dehydrogenases in viable cells (a non-radioactive alternative to the [^3H]-thymidine incorporation assay). In this assay, HBE cells were incubated with 100 μg of peptide for 24 hours, and then 10 μl/well Cell Proliferation Reagent WST-1 was added. The cells are incubated with the reagent and the plate is then measured with an ELISA plate reader, OD490 nm.
# [1] = type: cell-based
# [2] = test system: human bronchial epithelial cells (HBE); assay: LDH release assay (Cytotoxicity Detection Kit); type: cell-based; conditions: 24 hours; for LDH Release (OD490 nm): 100 μg/ml, no peptide control 1.0 ± 0.05; for toxicity / membrane damage: as measured by both assays (LDH, WST-1), HBE cells
# Protocol: as §1
# [3] = Citobacter rhodensis, overnight, 96-well plate
# [4] = Enterohaemorrhagic E. coli, overnight, 96-well plate
# [5] = Escherichia coli, overnight, 96-well plate
# [6] = Pseudomonas aeruginosa, overnight, 96-well plate
# [7] = Salmonella enteritidis ssp. typhimurium, overnight, 96-well plate
# [8] = Staphylococcus aureus, overnight, 96-well plate
substance,measurement,setting,value
RAPYWPWAWARPRK [ID 21],"ID#:ctrl intensity ratio, X65962 cytochrome P-450",A549 epithelial cells,5.7
KMKSFAKMLMLALKKVLKVLTTALTLKAGLPS [SEQ ID NO: 43],OD490 nm (WST-1 cell viability),HBE cells,0.46 ± 0.10 OD490 nm
same,"MIC, C. rhod.",[1]; 24 h,8 µg/mL
same,"MIC, E. coli",[1]; 24 h,8 µg/mL
same,"MIC, EHEC",[1]; 24 h,4 µg/mL
same,"MIC, P. aerug.",[1]; 24 h,16 µg/mL
same,"MIC, S. aureus",[1]; 24 h,128 µg/mL
same,"MIC, S. typhim.",[1]; 24 h,16 µg/mL
same,LDH Release (OD490 nm),[2],4.3 ± 0.2 OD490 nm
same,toxicity / membrane damage,[2],did induce membrane damage
RRRWKWAWPRRK [ID 24],"ID#:ctrl intensity ratio, X65962 cytochrome P-450",A549 epithelial cells,12.0
Triton X-100 [reference compound],OD490 nm (WST-1 cell viability),HBE cells,0.26 ± 0.01 OD490 nm
same,LDH Release (OD490 nm),[2],4.6 ± 0.1 OD490 nm
KKDAIKKVDIRGMDMRRAR [SEQ ID NO: 28],OD490 nm (WST-1 cell viability),HBE cells,1.69 ± 0.03 OD490 nm
same,"MIC, C. rhod.",[1]; 24 h,64 µg/mL
same,"MIC, EHEC",[1]; 24 h,128 µg/mL
same,"MIC, S. typhim.",[1]; 24 h,64 µg/mL
same,LDH Release (OD490 nm),[2],0.96 ± 0.06 OD490 nm
TTLGPVKRDSIPGE [ID 14],"ID#:ctrl intensity ratio, M14565 cytochrome P450",A549 epithelial cells,5.0
KCKLFKKMLMLALKKVLTTGLPALKLTK [SEQ ID NO: 40],OD490 nm (WST-1 cell viability),HBE cells,0.46 ± 0.06 OD490 nm
same,"MIC, C. rhod.",[1]; [3],4 µg/mL
same,"MIC, EHEC",[1]; [4],2 µg/mL
same,"MIC, E. coli",[1]; [5],4 µg/mL
same,"MIC, P. aerug.",[1]; [6],8 µg/mL
same,"MIC, S. typhim.",[1]; [7],4 µg/mL
same,"MIC, S. aureus",[1]; [8],32 µg/mL
same,LDH Release (OD490 nm),[2],2.8 ± 0.5 OD490 nm
same,toxicity / membrane damage,[2],did induce membrane damage
KNKAFAKMLMKALKKVTTAAKPLTG [ID 44],"X58467 cytochrome P450, expression Ratio ID#:ctrl",A549 epithelial cells,34.4
KQKLFAKMLMSALKKKTLVTTPLAGK [ID 45],"X58467 cytochrome P450, expression Ratio ID#:ctrl",A549 epithelial cells,3.4
RRAWWKAWWARRK [SEQ ID NO: 20],OD490 nm (WST-1 cell viability),HBE cells,1.61 ± 0.21 OD490 nm
same,"MIC, C. rhod.",[1]; 24 h,16 µg/mL
same,"MIC, E. coli",[1]; 24 h,8 µg/mL
same,"MIC, EHEC",[1]; 24 h,8 µg/mL
same,"MIC, P. aerug.",[1]; 24 h,8 µg/mL
same,"MIC, S. aureus",[1]; 24 h,8 µg/mL
same,"MIC, S. typhim.",[1]; 24 h,8 µg/mL
same,LDH Release (OD490 nm),[2],1.05 ± 0.03 OD490 nm
KNKAFAKMLMKALKKVTTAAKPLTG [SEQ ID NO: 44],OD490 nm (WST-1 cell viability),HBE cells,1.49 ± 0.39 OD490 nm
same,"MIC, C. rhod.",[1]; 24 h,64 µg/mL
same,"MIC, E. coli",[1]; 24 h,8 µg/mL
same,"MIC, EHEC",[1]; 24 h,64 µg/mL
same,"MIC, P. aerug.",[1]; 24 h,128 µg/mL
same,"MIC, S. typhim.",[1]; 24 h,128 µg/mL
same,LDH Release (OD490 nm),[2],0.97 ± 0.03 OD490 nm
RRAWWKAWWARRK [ID 20],"ID#:ctrl intensity ratio, X65962 cytochrome P-450",A549 epithelial cells,25.3
KMKSFAKMLMLALKKVLKVLTTALTLKAGLPS [ID 43],"X58467 cytochrome P450, expression Ratio ID#:ctrl",A549 epithelial cells,7.9
Polymyxin,"MIC, C. rhod.",[1]; [3],0.25 µg/mL
same,"MIC, EHEC",[1]; [4],0.5 µg/mL
same,"MIC, E. coli",[1]; [5],0.25 µg/mL
same,"MIC, P. aerug.",[1]; [6],0.25 µg/mL
same,"MIC, S. typhim.",[1]; [7],0.5 µg/mL
same,"MIC, S. aureus",[1]; [8],16 µg/mL
RRRWKWAWPRRK [SEQ ID NO: 24],OD490 nm (WST-1 cell viability),HBE cells,1.27 ± 0.16 OD490 nm
same,"MIC, C. rhod.",[1]; 24 h,16 µg/mL
same,"MIC, E. coli",[1]; 24 h,16 µg/mL
same,"MIC, EHEC",[1]; 24 h,4 µg/mL
same,"MIC, P. aerug.",[1]; 24 h,4 µg/mL
same,"MIC, S. aureus",[1]; 24 h,16 µg/mL
same,"MIC, S. typhim.",[1]; 24 h,16 µg/mL
same,LDH Release (OD490 nm),[2],1.05 ± 0.01 OD490 nm
KRTAIKKVSRRGMSVKARR [SEQ ID NO: 37],OD490 nm (WST-1 cell viability),HBE cells,1.67 ± 0.02 OD490 nm
same,LDH Release (OD490 nm),[2],0.96 ± 0.04 OD490 nm
KWKSFLRTFKSPVRTVFHTALKPISS [SEQ ID NO: 53],OD490 nm (WST-1 cell viability),HBE cells,1.51 ± 0.37 OD490 nm
same,"MIC, C. rhod.",[1]; [3],16 µg/mL
same,"MIC, EHEC",[1]; [4],8 µg/mL
same,"MIC, E. coli",[1]; [5],4 µg/mL
same,"MIC, P. aerug.",[1]; [6],8 µg/mL
same,"MIC, S. typhim.",[1]; [7],8 µg/mL
same,LDH Release (OD490 nm),[2],103 ± 0.06 OD490 nm
KWKSYAHTIMSPVRLIFHTALKPISS [SEQ ID NO: 48],OD490 nm (WST-1 cell viability),HBE cells,0.93 ± 0.08 OD490 nm
same,"MIC, C. rhod.",[1]; [3],1 µg/mL
same,"MIC, EHEC",[1]; [4],2 µg/mL
same,"MIC, E. coli",[1]; [5],16 µg/mL
same,"MIC, P. aerug.",[1]; [6],128 µg/mL
same,"MIC, S. typhim.",[1]; [7],16 µg/mL
same,LDH Release (OD490 nm),[2],0.95 ± 0.05 OD490 nm
